The subject of one data set is MV4-11. Put plainly: Induction of apoptosis in human MV4-11 cells assessed as healthy cells at 1 uM measured after 6 hrs by annexin V-FITC/PI staining based FACS assay (reference value: 63.50%). The format is functional. Background: In flow cytometry, cells or beads pass a laser one at a time.
In another data set the target is T1, Histone deacetylase 7 (Homo sapiens, UniProt Q8WUI4).
T1 sequence (Q8WUI4 whole entry): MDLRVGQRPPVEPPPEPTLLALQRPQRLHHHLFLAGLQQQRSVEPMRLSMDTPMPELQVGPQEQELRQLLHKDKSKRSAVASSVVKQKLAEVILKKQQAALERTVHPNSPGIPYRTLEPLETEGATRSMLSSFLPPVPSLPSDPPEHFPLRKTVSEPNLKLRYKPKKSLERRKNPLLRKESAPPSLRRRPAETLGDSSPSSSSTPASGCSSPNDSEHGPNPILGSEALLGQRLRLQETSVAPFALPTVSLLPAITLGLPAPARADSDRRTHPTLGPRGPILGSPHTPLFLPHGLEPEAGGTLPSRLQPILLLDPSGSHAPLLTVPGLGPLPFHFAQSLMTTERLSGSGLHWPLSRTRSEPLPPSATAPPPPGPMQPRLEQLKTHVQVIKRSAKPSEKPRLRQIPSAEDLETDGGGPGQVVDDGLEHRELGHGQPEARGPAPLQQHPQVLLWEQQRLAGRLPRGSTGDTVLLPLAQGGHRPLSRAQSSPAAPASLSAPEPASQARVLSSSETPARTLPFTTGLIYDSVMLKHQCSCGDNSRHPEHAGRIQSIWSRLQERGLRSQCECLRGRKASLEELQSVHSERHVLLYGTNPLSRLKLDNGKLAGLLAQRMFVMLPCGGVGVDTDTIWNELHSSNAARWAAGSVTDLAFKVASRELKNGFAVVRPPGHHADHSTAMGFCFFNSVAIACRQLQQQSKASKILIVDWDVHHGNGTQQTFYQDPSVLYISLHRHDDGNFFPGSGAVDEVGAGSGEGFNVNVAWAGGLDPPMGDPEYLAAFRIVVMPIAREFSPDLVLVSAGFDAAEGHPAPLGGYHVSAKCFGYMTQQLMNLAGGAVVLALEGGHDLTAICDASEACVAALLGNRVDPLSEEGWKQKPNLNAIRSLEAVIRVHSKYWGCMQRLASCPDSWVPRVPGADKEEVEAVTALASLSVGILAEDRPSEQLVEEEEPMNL
The data set can be described thus: Inhibition of HDAC7 (unknown origin) using 6-carboxyfluorescein peptide as substrate preincubated with compound for 6 hrs followed by substrate addition by electrophoretic mobility shift assay. Background: Mobility shift assays separate free from complexed probe on a gel.

Data set [1] deals with T2, Histone deacetylase 1 (Homo sapiens, UniProt Q13547). The data set can be described thus: Inhibition of HDAC1 (unknown origin) using 6-carboxyfluorescein peptide as substrate preincubated with compound for 6 hrs followed by substrate addition by electrophoretic mobility shift assay.
The target of another data set is Histone deacetylase 9 (Homo sapiens, UniProt Q9UKV0). The data set can be described thus: Inhibition of HDAC9 (unknown origin) using 6-carboxyfluorescein peptide as substrate preincubated with compound for 6 hrs followed by substrate addition by electrophoretic mobility shift assay.
The nature of data set [2]: Glutathione reactivity assessed as compound consumption at 500 nM measured after 1 to 3 hrs by LC-MS/MS analysis. Type of data set: ADME. As to conditions: glutathione solution, time 1-3 hrs, read-out: Activity.
For another data set, the target named is Histone deacetylase 2 (Homo sapiens, UniProt Q92769). The data set can be described thus: Inhibition of HDAC2 (unknown origin) using 6-carboxyfluorescein peptide as substrate preincubated with compound for 2 hrs followed by substrate addition by electrophoretic mobility shift assay.
Data set [3] concerns the target T2, Histone deacetylase 1. Put plainly: Inhibition of HDAC1 (unknown origin) using 6-carboxyfluorescein peptide as substrate preincubated with compound followed by substrate addition by electrophoretic mobility shift assay.
The target in data set [4] is Histone deacetylase 2 (Mus musculus) (UniProt P70288). Put plainly: Inhibition of HDAC2 in mouse C2C12 cells at 5 uM incubated for 72 hrs by immunofluorescence analysis. The format is cell-based.
For data set [5], the target named is T3, Protein deacetylase HDAC6 (Homo sapiens, UniProt Q9UBN7).
T3 sequence (Q9UBN7 whole entry): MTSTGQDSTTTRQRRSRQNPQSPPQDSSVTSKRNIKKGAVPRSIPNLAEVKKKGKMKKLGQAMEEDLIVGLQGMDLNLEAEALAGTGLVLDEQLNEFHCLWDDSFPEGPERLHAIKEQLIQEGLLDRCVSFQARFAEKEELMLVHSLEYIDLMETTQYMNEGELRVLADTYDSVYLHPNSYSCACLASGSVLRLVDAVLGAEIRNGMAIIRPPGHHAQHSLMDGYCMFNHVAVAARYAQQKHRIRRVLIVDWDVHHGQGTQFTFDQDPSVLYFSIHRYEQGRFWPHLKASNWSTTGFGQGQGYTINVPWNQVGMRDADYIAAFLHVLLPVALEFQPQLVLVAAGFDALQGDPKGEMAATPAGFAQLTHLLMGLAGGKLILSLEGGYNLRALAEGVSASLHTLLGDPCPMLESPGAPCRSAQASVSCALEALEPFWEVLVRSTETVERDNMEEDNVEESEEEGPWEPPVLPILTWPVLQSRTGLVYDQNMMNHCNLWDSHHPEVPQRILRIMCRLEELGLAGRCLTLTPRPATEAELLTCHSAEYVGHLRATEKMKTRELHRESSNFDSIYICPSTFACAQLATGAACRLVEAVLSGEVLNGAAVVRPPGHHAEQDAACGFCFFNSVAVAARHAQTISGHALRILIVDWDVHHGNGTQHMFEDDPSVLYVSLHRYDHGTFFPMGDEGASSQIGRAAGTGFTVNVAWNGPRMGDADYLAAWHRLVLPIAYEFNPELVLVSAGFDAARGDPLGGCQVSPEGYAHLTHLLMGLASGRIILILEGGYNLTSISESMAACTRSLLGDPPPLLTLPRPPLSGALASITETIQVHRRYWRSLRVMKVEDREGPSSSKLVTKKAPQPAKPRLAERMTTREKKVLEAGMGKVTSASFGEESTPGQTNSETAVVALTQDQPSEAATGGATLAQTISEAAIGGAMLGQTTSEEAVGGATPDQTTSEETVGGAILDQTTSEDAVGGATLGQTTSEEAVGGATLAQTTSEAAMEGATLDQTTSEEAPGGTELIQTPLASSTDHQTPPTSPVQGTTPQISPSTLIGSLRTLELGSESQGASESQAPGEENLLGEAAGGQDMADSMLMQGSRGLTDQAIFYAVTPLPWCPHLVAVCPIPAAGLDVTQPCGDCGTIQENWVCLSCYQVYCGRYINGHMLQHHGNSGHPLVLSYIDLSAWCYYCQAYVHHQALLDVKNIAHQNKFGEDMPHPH
Put plainly: Inhibition of full length recombinant human HDAC6 expressed in Sf9 cells using 6-carboxyfluorescein peptide as substrate preincubated with compound for 6 hrs followed by substrate addition and measured after 5 hrs by electrophoretic mobility shift assay.

This note sets out measurements from ChEMBL document CHEMBL5375983, “Discovery of YSR734: A Covalent HDAC Inhibitor with Cellular Activity in Acute Myeloid Leukemia and Duchenne Muscular Dystrophy” (J Med Chem, 2023).

The source made the active and inactive calls. No cut-off for these calls is given here.

T2 sequence (Q13547 whole entry): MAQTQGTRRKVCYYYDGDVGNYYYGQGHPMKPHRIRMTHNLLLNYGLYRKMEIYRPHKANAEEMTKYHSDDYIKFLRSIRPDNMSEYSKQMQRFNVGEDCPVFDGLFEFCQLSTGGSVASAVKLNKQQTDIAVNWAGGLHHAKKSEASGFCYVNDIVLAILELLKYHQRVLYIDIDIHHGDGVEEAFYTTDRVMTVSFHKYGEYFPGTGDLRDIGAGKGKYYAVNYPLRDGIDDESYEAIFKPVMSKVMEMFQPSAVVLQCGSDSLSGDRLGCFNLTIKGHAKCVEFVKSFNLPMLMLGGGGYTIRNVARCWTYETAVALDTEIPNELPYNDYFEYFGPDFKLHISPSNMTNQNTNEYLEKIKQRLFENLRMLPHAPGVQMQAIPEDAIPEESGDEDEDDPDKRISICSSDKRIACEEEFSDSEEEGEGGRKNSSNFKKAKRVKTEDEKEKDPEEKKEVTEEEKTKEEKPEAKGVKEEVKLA
Sequence of Histone deacetylase 2 (Mus musculus) (P70288 whole entry): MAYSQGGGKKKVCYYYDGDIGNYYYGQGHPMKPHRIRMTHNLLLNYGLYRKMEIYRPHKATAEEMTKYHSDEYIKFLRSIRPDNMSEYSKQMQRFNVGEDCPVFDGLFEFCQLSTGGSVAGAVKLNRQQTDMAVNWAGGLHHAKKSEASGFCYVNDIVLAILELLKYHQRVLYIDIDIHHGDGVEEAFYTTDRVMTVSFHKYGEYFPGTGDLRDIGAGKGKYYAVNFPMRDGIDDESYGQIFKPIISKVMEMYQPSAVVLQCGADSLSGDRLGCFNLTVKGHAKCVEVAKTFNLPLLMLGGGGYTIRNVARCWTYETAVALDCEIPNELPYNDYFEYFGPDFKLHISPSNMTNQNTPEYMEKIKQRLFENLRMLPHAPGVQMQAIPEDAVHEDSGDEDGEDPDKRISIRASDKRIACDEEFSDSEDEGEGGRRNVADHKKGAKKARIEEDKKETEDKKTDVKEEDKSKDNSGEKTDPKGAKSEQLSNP
Sequence of Histone deacetylase 2 (Q92769 whole entry): as the sequence (P70288 whole entry) above, with A289V, P477T, A480T counted along it
Sequence of Histone deacetylase 9 (Q9UKV0 whole entry): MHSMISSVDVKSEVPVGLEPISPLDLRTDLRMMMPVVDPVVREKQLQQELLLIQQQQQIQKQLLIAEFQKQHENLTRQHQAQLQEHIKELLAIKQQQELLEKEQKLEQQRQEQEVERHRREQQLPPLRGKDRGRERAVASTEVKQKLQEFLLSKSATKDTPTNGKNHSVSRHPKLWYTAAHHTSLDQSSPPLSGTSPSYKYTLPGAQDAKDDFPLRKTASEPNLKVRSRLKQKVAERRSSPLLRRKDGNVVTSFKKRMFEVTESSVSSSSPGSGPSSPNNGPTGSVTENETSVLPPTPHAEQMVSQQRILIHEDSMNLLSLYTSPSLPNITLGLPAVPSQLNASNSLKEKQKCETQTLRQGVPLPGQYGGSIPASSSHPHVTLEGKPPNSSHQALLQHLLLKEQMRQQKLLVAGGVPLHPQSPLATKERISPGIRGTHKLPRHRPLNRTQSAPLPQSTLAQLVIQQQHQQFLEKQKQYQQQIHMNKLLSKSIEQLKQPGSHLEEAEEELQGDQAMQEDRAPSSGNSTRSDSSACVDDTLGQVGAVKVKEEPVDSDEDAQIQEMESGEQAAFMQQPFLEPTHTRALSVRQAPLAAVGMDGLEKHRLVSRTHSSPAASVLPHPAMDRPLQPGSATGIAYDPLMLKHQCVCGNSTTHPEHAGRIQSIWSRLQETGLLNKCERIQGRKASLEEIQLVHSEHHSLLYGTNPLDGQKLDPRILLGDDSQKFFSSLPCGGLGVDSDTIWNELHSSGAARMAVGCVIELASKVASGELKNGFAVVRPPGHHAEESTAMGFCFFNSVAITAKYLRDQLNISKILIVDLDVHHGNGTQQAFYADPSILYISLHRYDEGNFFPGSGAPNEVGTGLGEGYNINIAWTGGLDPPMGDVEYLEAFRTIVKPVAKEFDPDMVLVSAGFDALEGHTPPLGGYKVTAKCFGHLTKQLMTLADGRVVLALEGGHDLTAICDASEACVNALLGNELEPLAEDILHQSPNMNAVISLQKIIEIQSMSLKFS

A word on the IC50: it is the midpoint of a concentration-inhibition curve. Regarding `Nc1ccccc1NC(=O)c1ccc(CNC(=O)OC2CCN(S(=O)(=O)c3c(F)c(F)c(F)c(F)c3F)CC2)cc1`, in the data set on MV4-11, the Activity turned out to be 23.54%. Further, the IC50 at Histone deacetylase 7 was more than 10000 nM; on Histone deacetylase 1 [1], 109 nM; at Histone deacetylase 9 it was more than 10000 nM; on Histone deacetylase 2, 327 nM; on Histone deacetylase 1 [3], 242 nM; in [5], more than 10000 nM. In data set [2], the degraded at 0.5 µM was more than 50%. For the same compound, the inhibition result in [4] was “Active”.
